In US7968093B2, “Fully human antibodies directed against the human insulin-like growth factor-1 receptor” (ImClone LLC, priority 2003, dated 2011):

Key:
IGF-IR [1] = biological target: T1, IGF-IR (Homo sapiens, UniProt P08069); assay: IGF-I mediated IGF-IR auto-phosphorylation, western blot; assay type: cell-based; parameters: endogenous in cells; HT-29; BxPC-3; HEL
MAPK = assay: IGF-I mediated MAPK phosphorylation, western blot; assay type: cell-based, human; details: MCF7 cells; IGF-I stimulated
Experimental: To visualize the inhibitory effect of the anti-IGF-IR antibodies on IGF-I signaling, receptor auto-phosphorylation and downstream effector molecule phosphorylation analysis was performed in the presence or absence of antibody A12 or 2F8. The MCF7 human breast cancer cell line was selected for use due to its high IGF-IR density. Cells were plated into 10 cm or 6 well culture dishes and grown to 70-80% confluence. The monolayers were then washed twice in PBS and cultured overnight in serum free defined medium. Anti-IGF-IR antibody was then added in fresh serum-free media (100 nM-10 nM) and incubated cells 30 minutes before addition of ligand (10 nM). Cells were incubated with ligand for 10 minutes, then placed on ice and washed with ice-cold PBS. […] Tyrosine phosphorylated protein was detected on the blot using an anti-p-tyrosine antibody (Cell Signaling #9411) and an anti-mouse-HRP secondary antibody. IGF-IR was detected with monoclonal antibody C-20 (Santa Cruz). For Akt phosphorylation, phospho-Akt was detected with antibody #559029 and total Akt with #559028 (BD Pharmingen). For MAPK phosphorylation, phospho-p44/42 was detected with #9101 and total p44/42 with #9102 (Cell Signaling Tech.). […]

[2] = tested on: BxPC-3 human pancreatic carcinoma cells; assay: BxPC-3 xenograft, A12 with CPT-11 or gemcitabine; assay type: in vivo, athymic nu/nu mice
Experimental: Athymic nu/nu mice were injected subcutaneously with 2×10^6 BxPC-3 human pancreatic carcinoma cells mixed 1:1 with Matrigel. […] All treatments were administered by intraperitoneal injection. Tumor measurements were recorded twice weekly using the formula Volume=(π/6)l×w^2.
At day 18 three animals per group were sacrificed and the tumors resected for midpoint histological evaluation. Treatment and tumor measurements continued on the remaining animals until day 44 with the exception of the TBS group. […] At termination of the study final tumor measurements were recorded, animals sacrificed, and four per group had tumors resected for endpoint histological evaluation.

mouse IGF-IR [3] = biological target: T2, mouse IGF-IR (Mus musculus, UniProt Q60751); assay: FACs binding analysis to mouse cell lines; assay type: cell-based; details: mouse tumor cell line Lewis Lung carcinoma
T2 construct: endogenous in cells; host or cells: Lewis Lung carcinoma (mouse); R- mouse embryo fibroblasts (IGF-IR negative control)

mouse IGF-IR [4] = assay: FACs binding analysis to mouse cell lines; assay type: cell-based; details: IGF-IR negative mouse embryo fibroblasts (R- cells)
IGF-IR [5] = biological target: T1, IGF-IR; assay: Blocking of 125I-IGF-I binding to immobilized soluble IGF-IR; parameters: recombinant extracellular portion of human IGF-IR was used to screen
Experimental: Forty 40 pM of ^125I-IGF-I was then added and the plates incubated an additional 90 minutes. […] Affinity was determined by BIAcore analysis according to manufacturer's specifications (Pharmacia BIACORE 3000). Soluble IGF-IR was immobilized on the sensor chips and antibody binding kinetics determined. […] The activity of A12 remained the same, irrespective of whether the light chain was engineered with a human lambda or kappa class constant region. Antibody A12 engineered with a lambda class light chain was utilized in all subsequent procedures.

IGF-IR [6] = biological target: T1, IGF-IR; assay: FACs binding analysis to human cell lines; assay type: cell-based; parameters: endogenous in cells; HT-29; BxPC-3; HEL; details: 0.5 μg A12
Experimental: Since A12 was capable of immunoprecipitating endogenous IGF-IR, we were therefore interested in determining if A12 could also be used as detection antibody for fluorescence activated cell sorting (FACs). Human tumor cell lines were grown in culture, scraped into ice-cold PBS, and counted. Primary antibody, A12 (0.5 μg), was added to approximately 5 million cells in 250 μl PBS/5% FBS and incubated on ice for 1 hour. The cells were then diluted to 3 mls in PBS/5% FBS, pelleted, and the supernatant aspirated. Secondary phycoerythin (PE)-labeled goat anti-human IgG F(ab)2 fragment was then added in 250 μl PBS/5% FBS at 1:200 and incubated on ice for 60 minutes. Afterwards, the cells were again diluted and pelleted, as before, then resuspended in 500 μl PBS/5% FBS. FACs analysis was then performed on a Epics XL unit (Coulter). […] IGF-IR negative mouse embryo fibroblasts (R-cells) (obtained from R. Baserga, Thomas Jefferson University, Philadelphia, Pa.) served as the negative control.

T2 sequence (Q60751 31-737 limits assumed): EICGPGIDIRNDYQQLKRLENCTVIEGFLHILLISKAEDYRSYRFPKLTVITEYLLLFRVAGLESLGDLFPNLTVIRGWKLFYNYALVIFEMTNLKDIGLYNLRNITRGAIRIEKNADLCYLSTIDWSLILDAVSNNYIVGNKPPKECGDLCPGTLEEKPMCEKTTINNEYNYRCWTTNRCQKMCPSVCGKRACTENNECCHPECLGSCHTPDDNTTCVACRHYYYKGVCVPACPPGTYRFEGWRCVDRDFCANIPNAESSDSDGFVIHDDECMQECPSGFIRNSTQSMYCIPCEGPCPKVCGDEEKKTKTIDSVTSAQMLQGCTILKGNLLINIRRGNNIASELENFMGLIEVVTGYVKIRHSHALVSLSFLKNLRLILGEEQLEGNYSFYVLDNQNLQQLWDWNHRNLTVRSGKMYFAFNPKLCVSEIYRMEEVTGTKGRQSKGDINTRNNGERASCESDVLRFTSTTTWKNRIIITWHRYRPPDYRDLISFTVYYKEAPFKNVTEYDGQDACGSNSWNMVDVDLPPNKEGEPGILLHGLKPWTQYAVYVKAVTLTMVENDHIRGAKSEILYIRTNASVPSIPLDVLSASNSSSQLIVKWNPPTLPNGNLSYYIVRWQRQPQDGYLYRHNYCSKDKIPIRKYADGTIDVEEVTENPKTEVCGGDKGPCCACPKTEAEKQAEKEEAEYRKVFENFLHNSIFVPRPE
T2 sequence (Q60751 742-1373 limits assumed): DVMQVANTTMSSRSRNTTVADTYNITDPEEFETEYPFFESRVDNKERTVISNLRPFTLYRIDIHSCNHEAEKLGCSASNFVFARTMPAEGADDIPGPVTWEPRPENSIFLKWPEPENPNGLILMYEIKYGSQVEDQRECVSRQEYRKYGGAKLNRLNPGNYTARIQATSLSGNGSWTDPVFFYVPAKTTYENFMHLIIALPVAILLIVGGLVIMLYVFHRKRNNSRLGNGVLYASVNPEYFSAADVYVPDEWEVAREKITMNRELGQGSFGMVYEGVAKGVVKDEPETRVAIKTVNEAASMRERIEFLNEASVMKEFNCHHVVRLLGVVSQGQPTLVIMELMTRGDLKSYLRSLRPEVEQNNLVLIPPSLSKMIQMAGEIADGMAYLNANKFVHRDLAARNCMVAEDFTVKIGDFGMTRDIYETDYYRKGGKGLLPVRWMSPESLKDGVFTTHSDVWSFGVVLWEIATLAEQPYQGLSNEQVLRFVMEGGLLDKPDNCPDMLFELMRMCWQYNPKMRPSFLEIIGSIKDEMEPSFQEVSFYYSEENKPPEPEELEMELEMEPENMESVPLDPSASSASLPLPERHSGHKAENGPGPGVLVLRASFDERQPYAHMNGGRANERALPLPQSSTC

With “A12: fully human IgG1 anti-IGF-IR antibody, lambda light chain; VH SEQ ID NO:2, VL SEQ ID NO:10; affinity matured from 2F8” the “inhibition of IGF-IR auto-phosphorylation” value (IGF-IR [1]; BxPC-3 pancreatic cancer cells) was “inhibited auto-phosphorylation of IGF-IR”, the “inhibition of IGF-IR auto-phosphorylation” value (IGF-IR [1]; HT-29 colorectal cancer cells) was “inhibited auto-phosphorylation of IGF-IR” and the “agonist activity: receptor phosphorylation by antibody alone” value (IGF-IR [1]; MCF7 cells, serum deprived, no ligand) was “did not induce receptor phosphorylation”. For the same substance, the “block of IGF-IR phosphorylation” value (IGF-IR [1]; MCF7 cells, 10 nM IGF-I) was “nearly completely blocked phosphorylation”, the “inhibition of MAPK phosphorylation” value (MAPK) was “considerably inhibited” and the “animals with partial tumor regressions” value ([2]; after five weeks of treatment) was 2 of eight. For the same substance, the “Regressions (individual tumor volumes < day 1 of treatment)” value ([2]; day 19, animals regressing/animals in group) was 2/12, the T/C % ([2]; day 19, ip, A12 1 mg 3 times per week, irinotecan 1 mg or gemcitabine 2.5 mg every 7 days) was 57% and the “Regressions (individual tumor volumes < day 1 of treatment)” value ([2]; day 23) was 2/9. For the same substance, the T/C % ([2]; day 23, same regimens) was 49%, the “Regressions (individual tumor volumes < day 1 of treatment)” value ([2]; day 26) was 2/9 and the T/C % ([2]; day 26, same regimens) was 40%. The “Regressions (individual tumor volumes < day 1 of treatment)” value ([2]; day 30) was 2/8, the T/C % ([2]; day 30, same regimens) was 40% and the “Regressions (individual tumor volumes < day 1 of treatment)” value ([2]; day 32) was 2/8. The T/C % ([2]; day 32, same regimens) was 39%, the “Regressions (individual tumor volumes < day 1 of treatment)” value ([2]; day 37) was 2/8 and the “Regressions (individual tumor volumes < day 1 of treatment)” value ([2]; day 41) was 2/8. For the same substance, the “Regressions (individual tumor volumes < day 1 of treatment)” value ([2]; day 44) was 2/8, the FACs shift (mouse IGF-IR [3]) was “partially shift” and the FACs binding (mouse IGF-IR [4]) was “failed to bind”. The “inhibition of radiolabeled IGF-I binding compared with cold ligand” value (IGF-IR [5]; FIG. 15) was “to a greater extent than competition with cold ligand”, the “increase in blocking activity of ligand for immobilized receptor, A12 versus 2F8” value (IGF-IR [5]; full IgG) was “at least a three-fold increase” and the FACs shift (IGF-IR [6]; HEL human leukemia cell line) was “fully shifted”. The FACs shift (IGF-IR [6]; MCF7 human breast cancer cell line) was “fully shifted”.
